Experimental data taken from PubChem BioAssay AID1259407 (Chemical Carcinogenesis Research Information System (CCRIS), 2018).
Active and inactive are the calls of the source. How the calls were made is not given here.

Tested on: CCRIS mutagenicity, Ames/micronucleus/aberration tests
Assay: CCRIS mutagenicity studies
[1] = Test System: AMES SALMONELLA TYPHIMURIUM, Strain/Indicator: TA98, Metabolic Activation: NONE, Method: STANDARD PLATE
[2] = Test System: AMES SALMONELLA TYPHIMURIUM, Strain/Indicator: TA100, Metabolic Activation: NONE, Method: STANDARD PLATE
[3] = Test System: AMES SALMONELLA TYPHIMURIUM, Strain/Indicator: TA1535, Metabolic Activation: NONE, Method: STANDARD PLATE
[4] = Test System: AMES SALMONELLA TYPHIMURIUM, Strain/Indicator: TA1537, Metabolic Activation: NONE, Method: STANDARD PLATE
[5] = Test System: AMES SALMONELLA TYPHIMURIUM, Strain/Indicator: TA1538, Metabolic Activation: NONE, Method: STANDARD PLATE

Compound: C[Si](C)(Cl)Cl
- mutagenic call (Test System: AMES SALMONELLA TYPHIMURIUM, Strain/Indicator: TA98, Metabolic Activation: HAMSTER, LIVER, S-9, AROCLOR 1254, Method: PREINCUBATION): inactive; negative
- mutagenic call (Test System: AMES SALMONELLA TYPHIMURIUM, Strain/Indicator: TA98, Metabolic Activation: NONE, Method: PREINCUBATION): inactive; negative
- mutagenic call [1]: inactive; negative
- mutagenic call (Test System: AMES SALMONELLA TYPHIMURIUM, Strain/Indicator: TA98, Metabolic Activation: RAT LIVER S-9, AROCLOR 1254, Method: STANDARD PLATE): inactive; negative
- mutagenic call (Test System: AMES SALMONELLA TYPHIMURIUM, Strain/Indicator: TA98, Metabolic Activation: RAT, LIVER, S-9, AROCLOR 1254, Method: PREINCUBATION): inactive; negative
- mutagenic call (Test System: AMES SALMONELLA TYPHIMURIUM, Strain/Indicator: TA100, Metabolic Activation: HAMSTER, LIVER, S-9, AROCLOR 1254, Method: PREINCUBATION): inactive; negative
- mutagenic call (Test System: AMES SALMONELLA TYPHIMURIUM, Strain/Indicator: TA100, Metabolic Activation: NONE, Method: PREINCUBATION): inactive; negative
- mutagenic call [2]: inactive; negative
- mutagenic call (Test System: AMES SALMONELLA TYPHIMURIUM, Strain/Indicator: TA100, Metabolic Activation: RAT LIVER S-9, AROCLOR 1254, Method: STANDARD PLATE): inactive; negative
- mutagenic call (Test System: AMES SALMONELLA TYPHIMURIUM, Strain/Indicator: TA100, Metabolic Activation: RAT, LIVER, S-9, AROCLOR 1254, Method: PREINCUBATION): inactive; negative
- mutagenic call (Test System: AMES SALMONELLA TYPHIMURIUM, Strain/Indicator: TA1535, Metabolic Activation: HAMSTER, LIVER, S-9, AROCLOR 1254, Method: PREINCUBATION): inactive; negative
- mutagenic call (Test System: AMES SALMONELLA TYPHIMURIUM, Strain/Indicator: TA1535, Metabolic Activation: NONE, Method: PREINCUBATION): inactive; negative
- mutagenic call [3]: inactive; negative
- mutagenic call (Test System: AMES SALMONELLA TYPHIMURIUM, Strain/Indicator: TA1535, Metabolic Activation: RAT LIVER S-9, AROCLOR 1254, Method: STANDARD PLATE): inactive; negative
- mutagenic call (Test System: AMES SALMONELLA TYPHIMURIUM, Strain/Indicator: TA1535, Metabolic Activation: RAT, LIVER, S-9, AROCLOR 1254, Method: PREINCUBATION): inactive; negative
- mutagenic call (Test System: AMES SALMONELLA TYPHIMURIUM, Strain/Indicator: TA1537, Metabolic Activation: HAMSTER, LIVER, S-9, AROCLOR 1254, Method: PREINCUBATION): inactive; negative
- mutagenic call (Test System: AMES SALMONELLA TYPHIMURIUM, Strain/Indicator: TA1537, Metabolic Activation: NONE, Method: PREINCUBATION): inactive; negative
- mutagenic call [4]: inactive; negative
- mutagenic call (Test System: AMES SALMONELLA TYPHIMURIUM, Strain/Indicator: TA1537, Metabolic Activation: RAT LIVER S-9, AROCLOR 1254, Method: STANDARD PLATE): inactive; negative
- mutagenic call (Test System: AMES SALMONELLA TYPHIMURIUM, Strain/Indicator: TA1537, Metabolic Activation: RAT, LIVER, S-9, AROCLOR 1254, Method: PREINCUBATION): inactive; negative
- mutagenic call (Test System: AMES SALMONELLA TYPHIMURIUM, Strain/Indicator: TA1538, Metabolic Activation: HAMSTER, LIVER, S-9, AROCLOR 1254, Method: PREINCUBATION): inactive; negative
- mutagenic call (Test System: AMES SALMONELLA TYPHIMURIUM, Strain/Indicator: TA1538, Metabolic Activation: NONE, Method: PREINCUBATION): inactive; negative
- mutagenic call [5]: inactive; negative
- mutagenic call (Test System: AMES SALMONELLA TYPHIMURIUM, Strain/Indicator: TA1538, Metabolic Activation: RAT LIVER S-9, AROCLOR 1254, Method: STANDARD PLATE): inactive; negative
- mutagenic call (Test System: AMES SALMONELLA TYPHIMURIUM, Strain/Indicator: TA1538, Metabolic Activation: RAT, LIVER, S-9, AROCLOR 1254, Method: PREINCUBATION): inactive; negative
- mutagenic call (Test System: E. COLI, Strain/Indicator: P3078(POL A-), Metabolic Activation: NONE, Method: SPOT TEST): inactive; negative
- mutagenic call (Test System: E. COLI, Strain/Indicator: P3078 POLA, Metabolic Activation: RAT LIVER S-9, AROCLOR 1254, Method: SPOT TEST): inactive; negative
- mutagenic call (Test System: E. COLI, Strain/Indicator: W3110, Metabolic Activation: NONE, Method: SPOT TEST): inactive; negative
- mutagenic call (Test System: E. COLI, Strain/Indicator: W3110, Metabolic Activation: RAT LIVER S-9, AROCLOR 1254, Method: SPOT TEST): inactive; negative
- mutagenic call (Test System: MOUSE LYMPHOMA, Strain/Indicator: L5178Y (TK+/TK-), Metabolic Activation: RAT, LIVER, S-9, AROCLOR 1254, Method: SUSPENSION/PLATE): inactive; negative. reevaluation of results: inconclusive
- mutagenic call (Test System: MOUSE LYMPHOMA, Strain/Indicator: L5178Y (TK+/TK-), Metabolic Activation: RAT, LIVER, S-9, Method: SUSPENSION/PLATE): inactive; negative

Compound: COc1cc(N)c(C)cc1N
- mutagenic call [1]: inactive; negative
- mutagenic call (Test System: AMES SALMONELLA TYPHIMURIUM, Strain/Indicator: TA98, Metabolic Activation: RAT, LIVER, S-9, AROCLOR 1254, Method: STANDARD PLATE): inactive; negative
- mutagenic call [2]: inactive; negative
- mutagenic call (Test System: AMES SALMONELLA TYPHIMURIUM, Strain/Indicator: TA100, Metabolic Activation: RAT, LIVER, S-9, AROCLOR 1254, Method: STANDARD PLATE): inactive; negative
- mutagenic call [3]: inactive; negative
- mutagenic call (Test System: AMES SALMONELLA TYPHIMURIUM, Strain/Indicator: TA1535, Metabolic Activation: RAT, LIVER, S-9, AROCLOR 1254, Method: STANDARD PLATE): inactive; negative
- mutagenic call [4]: inactive; negative
- mutagenic call (Test System: AMES SALMONELLA TYPHIMURIUM, Strain/Indicator: TA1537, Metabolic Activation: RAT, LIVER, S-9, AROCLOR 1254, Method: STANDARD PLATE): inactive; negative
- mutagenic call [5]: inactive; negative
- mutagenic call (Test System: AMES SALMONELLA TYPHIMURIUM, Strain/Indicator: TA1538, Metabolic Activation: RAT, LIVER, S-9, AROCLOR 1254, Method: STANDARD PLATE): inactive; negative

Compound: O=C1O[C@H]([C@H](O)CO)C(O)=C1O
- mutagenic call (End Point: IN VIVO MICRONUCLEUS, Test System: BONE MARROW POLYCHROMATIC ERYTHROCYTES, Species: MOUSE, Strain/Sex: DDY/MALE, Route: IP): inactive; negative
- mutagenic call (Test System: AMES SALMONELLA TYPHIMURIUM, Strain/Indicator: TA97, Metabolic Activation: NONE, Method: PREINCUBATION): inactive; negative
- mutagenic call (Test System: AMES SALMONELLA TYPHIMURIUM, Strain/Indicator: TA97, Metabolic Activation: RAT, LIVER, S-9, AROCLOR 1254, Method: PREINCUBATION): inactive; negative
- mutagenic call (Test System: AMES SALMONELLA TYPHIMURIUM, Strain/Indicator: TA102, Metabolic Activation: NONE, Method: PREINCUBATION): inactive; negative
- mutagenic call (Test System: AMES SALMONELLA TYPHIMURIUM, Strain/Indicator: TA102, Metabolic Activation: RAT, LIVER, S-9, AROCLOR 1254, Method: PREINCUBATION): inactive; negative

Compound: N=NCCCO
- mutagenic call [3]: active; positive
- mutagenic call (Test System: E. COLI, Strain/Indicator: WP2, Metabolic Activation: NONE, Method: STANDARD PLATE): active; positive
- mutagenic call (Test System: E. COLI, Strain/Indicator: WP2 UVRA, Metabolic Activation: NONE, Method: STANDARD PLATE): active; positive
